Assay results from publication PMC10135569, “Does Enhanced Structural Maturity of hiPSC-Cardiomyocytes Better for the Detection of Drug-Induced Cardiotoxicity?” (Biomolecules, 2023).

Experiments:
[1] = test system: hiPSC-CMs (iCell2 Cardiomyocytes) 2D monolayers; assay: Membrane potential (action potential) recordings with FluoVolt voltage-sensitive dye on the CellOPTIQ platform; format: cell-based, human; settings: for activity at 0.3 µM / activity at 1 µM / activity at 3 µM / activity at 10 µM: Homo sapiens, Cardiomyocyte, 0.5 h, 30 min, delta over DMSO 0.1%
Method in brief: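 iCell2 hiPSC-CM monolayers (50,000 cells/well on fibronectin or Matrix Plus, days 5–6) were loaded with FluoVolt (1:1000, 20 min, 37 °C) and imaged at 37 °C with 470 nm excitation and 510–560 nm emission sampled at 10 kHz. Spontaneous action potentials were recorded for 10 s at baseline and 30 min after drug, with one of four concentrations per well (n = 8).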

[2] = test system: hiPSC-CMs (iCell2 Cardiomyocytes) 2D monolayers; assay: Contractility measurements using video imaging (ContractilityTool / MUSCLEMOTION); format: cell-based, human; settings: Homo sapiens, Cardiomyocyte, 0.5 h, 30 min, delta over DMSO 0.1%
Method in brief: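 Monolayers on fibronectin or Matrix Plus coating, tested on days 5–6 in serum-free medium. Four concentrations, one per well, n = 8, with vehicle control.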

[3] = listed in Supplementary Table S1; no reference given; cited from earlier work
[4] = FM monolayer, read-out: APD30 (%DD)
[5] = FM monolayer, read-out: APD90 (%DD)
[6] = FM monolayer, read-out: CL (%DD)
[7] = FM monolayer, read-out: Trise (%DD)
[8] = MM monolayer, read-out: APD30 (%DD)
[9] = MM monolayer, read-out: APD90 (%DD)
[10] = MM monolayer, read-out: CL (%DD)
[11] = MM monolayer, read-out: Trise (%DD)
[12] = FM monolayer, read-out: CtAmp (%DD)
[13] = FM monolayer, read-out: CtD50 (%DD)
[14] = MM monolayer, read-out: CtAmp (%DD)
[15] = MM monolayer, read-out: CtD50 (%DD)
[16] = both FM and MM monolayers, concentration not given

For `Cc1[nH]c(=O)c(C#N)cc1-c1ccncc1` [Milrinone], the activity at 0.3 µM [1, 4] was 96 ± 1.8%, the activity at 0.3 µM [1, 5] was 96 ± 1.2% and the activity at 0.3 µM [1, 6] was 96 ± 1.6%. It also gave an activity at 0.3 µM [1, 7] of 80 ± 13.1%, an activity at 1 µM [1, 4] of 100 ± 1% and an activity at 1 µM [1, 5] of 96 ± 0.7%. The activity at 1 µM [1, 6] was 99 ± 0.8%, the activity at 1 µM [1, 7] was 74 ± 13.3% and the activity at 3 µM [1, 4] was 96 ± 1.9%. The activity at 3 µM [1, 5] was 94 ± 0.4%, the activity at 3 µM [1, 6] was 100 ± 0.7% and the activity at 3 µM [1, 7] was 68 ± 7.3%. It also gave an activity at 10 µM [1, 4] of 92 ± 2%, an activity at 10 µM [1, 5] of 95 ± 1.1% and an activity at 10 µM [1, 6] of 103 ± 0.6%. For the same compound, the activity at 10 µM [1, 7] was 106 ± 26.8%, the activity at 0.3 µM [1, 8] was 96 ± 1.6% and the activity at 0.3 µM [1, 9] was 97 ± 1.1%. It also gave an activity at 0.3 µM [1, 10] of 97 ± 0.2%, an activity at 0.3 µM [1, 11] of 112 ± 18.8% and an activity at 1 µM [1, 8] of 97 ± 0.7%. The activity at 1 µM [1, 9] was 99 ± 0.5%, the activity at 1 µM [1, 10] was 100 ± 0.6% and the activity at 1 µM [1, 11] was 125 ± 11.4%. For the same compound, the activity at 3 µM [1, 8] was 97 ± 1.4%, the activity at 3 µM [1, 9] was 102 ± 1.4% and the activity at 3 µM [1, 10] was 101 ± 0.5%. It also gave an activity at 3 µM [1, 11] of 132 ± 27.3%, an activity at 10 µM [1, 8] of 95 ± 1% and an activity at 10 µM [1, 9] of 100 ± 0.9%. It also gave an activity at 10 µM [1, 10] of 103 ± 0.2%, an activity at 10 µM [1, 11] of 102 ± 7% and an activity at 0.3 µM [2, 12] of 103 ± 10.9%. The activity at 0.3 µM [2, 13] was 101 ± 1.7%, the activity at 1 µM [2, 12] was 116 ± 13.2% and the activity at 1 µM [2, 13] was 104 ± 2.4%. It also gave an activity at 3 µM [2, 12] of 100 ± 8.4%, an activity at 3 µM [2, 13] of 103 ± 1.7% and an activity at 10 µM [2, 12] of 81 ± 5.7%. For the same compound, the activity at 10 µM [2, 13] was 101 ± 1.7%, the activity at 0.3 µM [2, 14] was 131 ± 17.5% and the activity at 0.3 µM [2, 15] was 100 ± 1%. For the same compound, the activity at 1 µM [2, 14] was 115 ± 6.3%, the activity at 1 µM [2, 15] was 105 ± 1.8% and the activity at 3 µM [2, 14] was 76 ± 9.1%. It also gave an activity at 3 µM [2, 15] of 104 ± 1.5%, an activity at 10 µM [2, 14] of 129 ± 28.5% and an activity at 10 µM [2, 15] of 100 ± 1.4%. For the same compound, the “Free Cmax” value [3] was 2320 nM.

`C=C[C@H]1C[N@@]2CC[C@H]1C[C@@H]2[C@@H](O)c1ccnc2ccc(OC)cc12` [Quinidine] gave an activity at 0.3 µM [1, 4] of 105 ± 2.9%, an activity at 0.3 µM [1, 5] of 115 ± 2.5% and an activity at 0.3 µM [1, 7] of 103 ± 14%. It also gave an activity at 1 µM [1, 4] of 104 ± 1.4%, an activity at 1 µM [1, 5] of 122 ± 1.4% and an activity at 1 µM [1, 7] of 135 ± 8.3%. For the same compound, the activity at 0.3 µM [1, 8] was 104 ± 1.4%, the activity at 0.3 µM [1, 9] was 108 ± 1.2% and the activity at 0.3 µM [1, 11] was 111 ± 15.7%. It also gave an activity at 1 µM [1, 8] of 100 ± 1.2%, an activity at 1 µM [1, 9] of 115 ± 0.8% and an activity at 1 µM [1, 11] of 123 ± 15%. It also gave an activity at 3 µM [1, 8] of 103 ± 2.1%, an activity at 3 µM [1, 9] of 121 ± 1.2% and an activity at 3 µM [1, 11] of 188 ± 23.3%. The “effect on AP rise time (Trise) (in words)” value [1, 16] was “increased”, the “effect on APD90 (in words)” value [1, 16] was “increased” and the “effect on cycle length (in words)” value [1, 16] was “increased”. The “electrical activity of the monolayers at higher concentrations” value ([1]; higher concentrations, FM and MM) was “electrically quiescent”, the activity at 0.3 µM [2, 12] was 66 ± 15.3% and the activity at 0.3 µM [2, 13] was 111 ± 6.3%. For the same compound, the activity at 1 µM [2, 12] was 162 ± 50.3%, the activity at 1 µM [2, 13] was 106 ± 1.8% and the activity at 0.3 µM [2, 14] was 118 ± 21.6%. The activity at 0.3 µM [2, 15] was 107 ± 2.7%, the activity at 1 µM [2, 14] was 99 ± 13.1% and the activity at 1 µM [2, 15] was 97 ± 2.5%. The activity at 3 µM [2, 14] was 106 ± 11.4%, the activity at 3 µM [2, 15] was 105 ± 1.5% and the “Free Cmax” value [3] was 920 nM.
